US5399487A, “6-peptidylamino-1-naphthalenesulfonamides useful as fluorogenic proteolytic enzyme substrates” (Haematologic Technologies, Inc., priority 1993, dated 1995)

Experiments:
Type in all cases: biochemical
thrombin (IIa) = target: T1, thrombin (IIa) (Homo sapiens, UniProt P00734); assay: Fluorogenic enzyme assay (Example 5)
T1 construct: 0.5 nM human thrombin (IIa)
Procedure, shortened: (§1)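 Initial-rate measurement of fluorogenic substrate cleavage; TBS pH 7.4, room temperature (22° C). Fluorophore detected at ex 352/em 470 nm, quantified by standard curve; Km and kcat obtained by Michaelis-Menten regression.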

[1] = target: activated protein C (APC) (Homo sapiens, UniProt P04070); assay: Fluorogenic enzyme assay (Example 5); parameters: key to Kinetic constants, APC (symbol b): slow substrate hydrolysis, no kinetic constants calculated
Chain of activated protein C (APC) (P04070 212-461 limits assumed): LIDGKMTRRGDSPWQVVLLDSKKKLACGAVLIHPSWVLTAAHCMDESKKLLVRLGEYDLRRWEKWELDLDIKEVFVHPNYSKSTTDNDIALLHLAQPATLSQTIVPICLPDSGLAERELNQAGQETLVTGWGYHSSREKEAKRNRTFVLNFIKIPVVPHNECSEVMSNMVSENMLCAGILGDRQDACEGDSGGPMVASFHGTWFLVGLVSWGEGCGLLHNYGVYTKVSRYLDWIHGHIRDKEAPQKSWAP
Chain of activated protein C (APC) (P04070 43-197 limits assumed): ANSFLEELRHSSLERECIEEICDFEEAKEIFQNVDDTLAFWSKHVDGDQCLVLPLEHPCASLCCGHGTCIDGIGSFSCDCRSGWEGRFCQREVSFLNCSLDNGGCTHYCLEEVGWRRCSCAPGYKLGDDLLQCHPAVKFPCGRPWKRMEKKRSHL
Procedure, shortened: as §1

plasmin (Plm) = plasmin (Plm) (Homo sapiens, UniProt P00747); assay: Fluorogenic enzyme assay (Example 5); conditions: 10 nM enzyme, substrate 1 μM
Chain of plasmin (Plm) (P00747 581-810 limits assumed, species assumed): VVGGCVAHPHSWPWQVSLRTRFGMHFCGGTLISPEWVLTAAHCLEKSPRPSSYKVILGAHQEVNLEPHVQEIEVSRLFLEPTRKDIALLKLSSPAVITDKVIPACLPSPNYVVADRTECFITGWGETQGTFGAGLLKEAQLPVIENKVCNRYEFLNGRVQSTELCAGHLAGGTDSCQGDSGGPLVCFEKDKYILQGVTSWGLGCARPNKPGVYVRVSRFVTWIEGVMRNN
Chain of plasmin (Plm) (P00747 97-580 limits assumed, species assumed): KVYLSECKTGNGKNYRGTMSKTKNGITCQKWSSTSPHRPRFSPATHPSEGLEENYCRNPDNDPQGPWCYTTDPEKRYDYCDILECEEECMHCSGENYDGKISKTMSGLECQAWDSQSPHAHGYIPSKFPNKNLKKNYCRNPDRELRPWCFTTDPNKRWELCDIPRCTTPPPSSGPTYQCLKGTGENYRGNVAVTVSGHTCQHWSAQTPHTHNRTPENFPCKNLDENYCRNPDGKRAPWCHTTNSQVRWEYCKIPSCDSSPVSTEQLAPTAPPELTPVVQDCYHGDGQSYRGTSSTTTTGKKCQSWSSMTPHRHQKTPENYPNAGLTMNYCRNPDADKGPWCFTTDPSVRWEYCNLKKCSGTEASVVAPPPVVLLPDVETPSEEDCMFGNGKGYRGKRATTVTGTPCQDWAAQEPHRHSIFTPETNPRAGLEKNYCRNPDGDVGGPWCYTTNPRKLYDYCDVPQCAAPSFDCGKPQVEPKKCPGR
Procedure, shortened: as §1

[2] = target: tissue plasminogen activator (t-PA) (Homo sapiens, UniProt P00750); assay: Fluorogenic enzyme assay (Example 5); conditions: 100 nM enzyme, substrate 1 μM
Chain of tissue plasminogen activator (t-PA) (P00750 36-562, species assumed): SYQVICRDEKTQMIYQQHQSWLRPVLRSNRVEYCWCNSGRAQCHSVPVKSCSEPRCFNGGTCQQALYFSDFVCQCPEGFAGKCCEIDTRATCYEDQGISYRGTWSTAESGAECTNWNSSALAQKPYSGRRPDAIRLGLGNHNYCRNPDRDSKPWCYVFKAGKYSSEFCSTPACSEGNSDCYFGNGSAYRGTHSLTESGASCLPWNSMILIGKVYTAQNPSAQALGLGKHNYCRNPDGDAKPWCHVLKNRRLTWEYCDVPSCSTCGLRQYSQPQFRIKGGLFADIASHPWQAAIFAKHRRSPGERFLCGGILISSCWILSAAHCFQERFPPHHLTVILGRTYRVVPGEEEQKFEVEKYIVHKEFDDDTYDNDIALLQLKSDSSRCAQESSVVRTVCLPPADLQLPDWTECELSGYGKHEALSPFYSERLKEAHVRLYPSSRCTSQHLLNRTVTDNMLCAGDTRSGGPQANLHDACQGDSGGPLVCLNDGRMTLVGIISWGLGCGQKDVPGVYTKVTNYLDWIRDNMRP
Procedure, shortened: as §1

urokinase (u-PA) = urokinase (u-PA) (Homo sapiens, UniProt P00749); assay: Fluorogenic enzyme assay (Example 5); conditions: 100 nM enzyme, substrate 1 μM
factor VIIa [3] = target: T2, factor VIIa (Homo sapiens, UniProt P08709); assay: Factor VIIa substrate hydrolysis in presence and absence of tissue factor (FIG. 2)
T2 construct: directly measure the enzymatic activity of factor VIIa in the presence and absence of tissue factor and phospholipid
T2 sequence (P08709 213-466 limits assumed): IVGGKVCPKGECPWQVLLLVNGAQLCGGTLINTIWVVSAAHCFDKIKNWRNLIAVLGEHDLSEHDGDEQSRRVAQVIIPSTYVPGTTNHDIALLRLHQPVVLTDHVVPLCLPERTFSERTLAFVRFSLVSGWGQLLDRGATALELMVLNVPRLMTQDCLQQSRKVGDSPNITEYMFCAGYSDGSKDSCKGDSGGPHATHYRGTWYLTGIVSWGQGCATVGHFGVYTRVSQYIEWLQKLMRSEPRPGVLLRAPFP
T2 sequence (P08709 61-212 limits assumed): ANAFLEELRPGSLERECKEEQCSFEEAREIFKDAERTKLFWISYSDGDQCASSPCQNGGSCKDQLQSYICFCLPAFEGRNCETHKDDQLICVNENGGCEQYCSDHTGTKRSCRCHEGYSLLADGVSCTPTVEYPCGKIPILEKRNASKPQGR
From the text: (§2) When coupled to methanesulfonyl-D-leucinyl-glycinyl-arginine(Mes-D-Leu-Gly-Arg), 6-amino-1-(N,N-diethyl)napthalenesulfonamide the resulting substrate yielded significant reactivity with factor VIIa. This substrate was sufficiently reactive with factor VIIa to allow reliable quantitation of factor VIIa activity at concentrations of about 10^-9 M. Further, this substrate was useful for the measurement of factor VIIa activity when it was bound to its co-factor protein tissue factor. The interaction of tissue factor with factor VIIa enhanced the factor VIIa dependent substrate hydrolysis by 120 fold. Thus, the invention provides unique substrates suitable for measuring both the activity of factor VIIa directly and in complex reactions involving the interaction between tissue factor and factor VIIa.
(§3) The binding of factor VIIa to tissue factor was analyzed by factor VIIa substrate hydrolysis when complexed with tissue factor. Tissue factor was relipidated into PC or PCPS vesicles as described above. The final concentration of tissue factor and phospholipid used for all binding studies was 2 nM and 200 μM respectively. In control experiments where tissue factor was in excess, 50 nM tissue factor and 200 μM PCPS vesicles were used. Recombinant factor VIIa (0.5 to 20 nM) was added to assembled TF/phospholipid complex and incubated for 15 minutes at 37° C. in HBS. The reaction was started by the addition of substrate (40 μM final) and the rate of substrate hydrolysis as reported by an increase in fluorescent intensity was recorded as described above in Example 5. The instrument was standardized daily using a 1 μM stock of the 6-amino-1-(N,N-diethyl)napthalenesulfonamide in HBS at 37° C. as described above.
(§4) The increase in the rate of factor VIIa substrate hydrolysis, both in the presence and absence of tissue factor, is linear over the concentration range tested, as shown in FIG. 2. […] In FIG. 2, filled triangles represent the rate of substrate hydrolysis as a function of increasing factor VIIa concentrations with an excess of tissue factor ([…]) in the assay. […]

factor VIIa [4] = assay: as above; conditions: with vs without tissue factor
From the text: as §2, §3, §4

TIME TO 10% HYDROLYSIS (HOURS), IIa (thrombin (IIa); 10 nM enzyme, substrate 1 μM): 0.33 h
Km (thrombin (IIa); Table 9): 31.6 µM
kcat /Km, IIa (thrombin (IIa); Table 9): 20000 M⁻¹ s⁻¹
kcat, IIa (thrombin (IIa); Table 9): 0.63 s⁻¹
TIME TO 10% HYDROLYSIS (HOURS), APC ([1]; 100 nM enzyme (footnote b), substrate 1 μM): 0.5 h
Kinetic constants, APC (symbol b) ([1]; Table 9): b
TIME TO 10% HYDROLYSIS (HOURS), Plm (plasmin (Plm)): 1 h
TIME TO 10% HYDROLYSIS (HOURS), t-PA [2]: 2 h
TIME TO 10% HYDROLYSIS (HOURS), u-PA (urokinase (u-PA)): 2 h
factor VIIa concentration allowing reliable quantitation of factor VIIa activity (factor VIIa [3]): about 10^-9 M
SMILES: CCN(CC)S(=O)(=O)c1cccc2cc(NC(=O)[C@H](CCCNC(=N)N)NC(=O)CNC(=O)[C@@H](CC(C)C)NS(C)(=O)=O)ccc12 [MesD-LPR-ANSN(C2 H5)2, 6-(Mes-D-Leu-Gly-Arg)amino-1-(N,N-diethyl)napththalenesulfonamide]
enhancement of factor VIIa dependent substrate hydrolysis by tissue factor (factor VIIa [4]; listed as 6-(Mes-D-Leu-Gly-Arg)amino-1-(N,N-diethyl)naphthalenesulfonamide): 120 fold
enhancement of factor VIIa dependent substrate hydrolysis by tissue factor (factor VIIa [4]; listed as factor VIIa substrate): > 100 fold
